Results as given in patent publication US8158441B2, “Method for detecting aggregate-forming circulating protein forms using an agent for aggregating said forms and an agent for capturing formed aggregates” (Biomerieux S.A., priority 2005, dated 2012).

Assays:
[1] = molecular target: T1, recombinant alpha-synuclein (SYN) protein (Homo sapiens, UniProt P37840); assay: Precipitation of recombinant alpha-synuclein spiked into human plasma by agent I, protein gel and Western blotting; details: 50 to 500 mg/ml agent I, 60 minutes at 37° C., Western blotting
T1 construct: purchased rPeptide
Experimental: After migration, two options are used: • The protein gel is stained with Coomassie Blue by adding gelcode blue stain reagent (Pierce) overnight at ambient temperature with shaking. […] 9.2 Detection in the Presence of the Agent I
The pellets are recovered and are separated from the supernatants. All the fractions are conserved. The pellets are taken up with 250 μl of SDS buffer. After denaturation, all the fractions are analyzed by the Western blotting technique.

[2] = molecular target: T2, phosphorylated Tau protein (Homo sapiens, UniProt P10636); assay: Precipitation of phosphorylated Tau protein from brain extracts spiked into plasma by agent I, PhosphoTau ELISA of pellet and supernatant; details: TET 100 mg/ml, 60 minutes at 37° C.
T2 construct: The assays are carried out with 25 ng of brain extracts; from tissue; host or cells: brain extracts from Alzheimer (AD+) and non-Alzheimer (AD-) patients, diluted in a pool of normal plasmas
Experimental: The PhosphoTau Elisa assay is based on the use of Dynex microplates to which are bound 3 μg/ml of goat anti-mouse Fc antibodies (Pierce) in a 25 mM KHPO4 buffer (pH 7.2) containing 140 mM NaCl, 1 mM EDTA and 2 mM NaN3, for three hours at 24° C. The wells are then passivated with a TBS (25 mM Tris-HCl, pH 7.5, 140 mM NaCl)-casein (1%) buffer for 1 h at 24° C., and then incubated for 2 h at 24° C. with 3 μg/ml of Tau1 (Chemicon) and CP27 (AppliedNeuroSolutions) antibodies diluted in TBS casein buffer.
Standards and brain extracts are diluted in a pool of normal plasmas for these assays and deposited at a rate of 80 μL per well in duplicate. […] 20 μl of this mixture are added to each well and incubated for 66 hours at 24° C. […] The biotinylated antibody is detected with 0.4 μg/ml of a streptavidin-peroxydase conjugate (Pierce) diluted in TBS-casein buffer and incubated for 45 minutes at 24° C. A Lumiglo reagent (Kirkegaard and Perry laboratories, US) is added to each well and the chemiluminescence is read in a luminometer (Berthold, Centro LB 960). […]
The samples are then centrifuged for 10 minutes at 13 000 rpm. […] The samples are then ready to be deposited on plates.
The samples are then centrifuged for 10 minutes at 13 000 rpm. […] The samples are then ready to be deposited onto plates.

[3] = molecular target: T3, beta-amyloid peptide 1-42 (Homo sapiens, UniProt P05067); assay: Circular dichroism of Aβ42 peptide with para-sulfonato-calix[4]arene; format: binding; details: in the presence of para-sulfonato-calix[4]arene, peptide/calixarene 1/1 to 1/5
T3 construct: synthetic beta-amyloid peptide 42 amino acids in length (beta-A peptide 1-42)
Experimental: The analysis is carried out by circular dichroism.
(§1) The beta-amyloid peptide to be analyzed as defined above, also called Aβ42, is extemporaneously dissolved at a stock concentration of 2.2×10^−4M in a solution of trifluoroethanol (TFE) at 20% in water in order to structure the β-amyloid peptides. The para-sulfonato-calix[n]arenes, prepared as described in Da Silva, E. et al., 2003, Tetrahedron, 59(37): 7357-7364, are dissolved at 100 μM in 50 mM phosphate buffer. The samples are prepared so as to be able to obtain a final concentration of 10 μM of beta-amyloid peptide in a phosphate buffer, i.e. for a final volume of 500 μL. The peptide concentration/calixarene concentration ratios can vary from 1/0 to 1/5.
A β-amyloid control without para-sulfonato-calix[n]arene is carried out: 22.5 μL of Aβ42 stock solution at 2.2×10^−4M (5 nmol) in 20% TFE, 477.5 μL of 50 mM phosphate buffer.
The samples are analyzed by circular dichroism between 180 and 260 nm.
The control is a sample of Aβ42 peptide without calixarene (1/0). The solutions are prepared for a final volume of 500 μL. The Aβ42 peptide has a molar mass of 4514 g/mol, the para-sulfonato-calix[4]arene has a molar mass of 744 g/mol.

[4] = molecular target: T3, beta-amyloid peptide 1-42; assay: Circular dichroism of Aβ42 peptide with chondroitin-6-sulfate; format: binding
Experimental: as §1, with “2.2×10^-4M” for “2.2×10^−4M”, “para-sulfonato-[…],” for “para-sulfonato-calix[n]arenes,”, “1/5. The samples are analyzed by circular dichroism between 180 and 260 nm. The protocol described in Example 5 above was repeated, with the exception that chondroitin-6-sulfate (Sigma) was used as agent II.” for “1/5.”

recombinant Tau protein = assay: Capture/precipitation of recombinant Tau protein by agent II C6S, Western blotting of pellet and supernatant; details: C6S 0.5 mM to 60 mM, 30 minutes at 37° C., centrifugation
Experimental: It is identical to that described in point 2.1 above.
The assays are carried out as indicated in point 2.2 above, apart from the fact that C6S prepared as indicated patent application WO2004/059322 is used, with a concentration range of from 0.5 mM to 60 mM.

[5] = chondroitin-6-sulfate at a concentration equal to that of Aβ42

T3 sequence (P05067 672-713): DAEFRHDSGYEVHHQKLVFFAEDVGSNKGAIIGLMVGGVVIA
T2 sequence (P10636 1-441 isoform P10636-8): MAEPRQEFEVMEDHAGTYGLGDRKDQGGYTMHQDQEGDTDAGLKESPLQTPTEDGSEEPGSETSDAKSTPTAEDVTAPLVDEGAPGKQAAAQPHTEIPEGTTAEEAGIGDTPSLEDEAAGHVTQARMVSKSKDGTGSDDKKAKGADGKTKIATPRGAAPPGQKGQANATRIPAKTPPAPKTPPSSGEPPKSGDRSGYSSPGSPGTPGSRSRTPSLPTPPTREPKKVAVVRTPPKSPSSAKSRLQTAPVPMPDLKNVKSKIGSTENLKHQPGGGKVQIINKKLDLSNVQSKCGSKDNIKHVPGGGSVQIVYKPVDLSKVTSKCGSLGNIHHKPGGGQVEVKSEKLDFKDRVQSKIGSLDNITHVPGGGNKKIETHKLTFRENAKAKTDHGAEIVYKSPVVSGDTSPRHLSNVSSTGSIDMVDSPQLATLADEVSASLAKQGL

In the case of `NCCNCCNCCN` [TET, triethylenetetramine], the “completeness of precipitation of the Syn protein (protein found in the supernatant fraction)” value [1] is reported as “not complete”, the “fraction in which the Syn protein is found after treatment with agent I” value [1] is reported as “found in the pellet” and the “fraction in which the phosphorylated Tau protein is found after treatment with agent I” value [2] is reported as “found in the pellet”.
For `O=S(=O)(O)c1cc2c(O)c(c1)Cc1cc(S(=O)(=O)O)cc(c1O)Cc1cc(S(=O)(=O)O)cc(c1O)Cc1cc(S(=O)(=O)O)cc(c1O)C2` [para-sulfonato-calix[4]arene], the “aperiodic structure (200 nm) of Aβ42 as share of visible structures” value [3] was 38%, the “α-helix structure (210 nm) of Aβ42 as share of visible structures” value [3] was “more than 37%” and the “β-sheets (220 nm) of Aβ42 as share of visible structures” value [3] was “more than 26%”.
In the case of `[H]/N=C(/N)N[C@H]1[C@H](O)[C@@H](O)[C@H](O[C@@H]2O[C@@H](C)[C@](O)(C=O)[C@H]2O[C@@H]2O[C@@H](CO)[C@H](O)[C@@H](O)[C@@H]2NC)[C@@H](N/C(N)=N\[H])[C@@H]1O` [streptomycin], the “completeness of precipitation of the Syn protein (protein found in the supernatant fraction)” value [1] is reported as “not complete” and the “fraction in which the Syn protein is found after treatment with agent I” value [1] is reported as “found in the pellet”.
In the case of chondroitin-6-sulfate, the “aperiodic structure (at 200 nm) of Aβ42” value [4, 5] is reported as “greater than 26%”, the “α-helix (at 210 nm) of Aβ42” value [4, 5] is reported as “more than 37%” and the “β-sheet of Aβ42 at 220 nm” value [4, 5] is reported as “appears”. The “secondary conformation adopted by Aβ42” value ([4]; chondroitin-6-sulfate five times greater than the Aβ42 peptide) was “essentially aperiodic structure”.
“p-sulfonato-3,7-(2-aminoethyloxy)calix-[6]-arene [C6S]” was tested, and the “fraction in which the Tau protein and its digested forms are found after treatment with C6S” value (recombinant Tau protein) was “found in the pellet”.
